The target in one experiment is T1, h56A4 (Homo sapiens, UniProt Q8NGH8).
T1 construct: gene OR56A4
The experiment can be described thus: cell-based. On the set-up: species or system Hana3A; cAMP-mediated luciferase reporter dose-response of odorant receptor orthologs and paralogs. The text has this: (§1) Figure 6 Dose-response curves of OR orthologs and paralogs to a given ligand. (A) OR5K1 orthologs and 5 K subfamily to eugenol methyl ether. (B) OR8D1 orthologs and 8D subfamily members to 4,5-dimethyl-3-hydroxy-2,5-dihydrofuran-2-one. […] X-axis is the concentration of a given odor in Log Molar. Y-axis is normalized response (n = 3, ± S.E.M.). Human (h), chimpanzee (c) and rhesus macaque (m), mouse receptors (m+number); para indicates a receptor that is a paralog to the human reference OR. Vector control is Rho-pCI. See Figure S11 for additional dose-response data from orthologs and subfamily members. Supplementary file pgen.1002821.s018.pdf: Table S5 Comparison of dose-response curves from orthologs and paralogs. LogEC50 (M), Span (dynamic-range) for each OR is given. […] F-ratio and p-values from extra sum-of-squares test. (PDF) Click here for additional data file.  Figure 2 Response of OR orthologs to 42 chemically diverse odors. (A) Tuning curves of human, chimp and macaque OR2W1 orthologs tested against 42 odors using a cAMP-mediated luciferase assay. Odorants are ordered along the x-axis according to the response elicited from the human OR2W1, with the best ligands closer to the center. Y-axis represents the luciferase response to an odor at 100 µM (n = 3, ± S.E.). Negative values on the y-axis indicate the odor elicited an inhibitory response on OR signaling. See Figure S6 for additional tuning curves. (B) Response of chimp and macaque OR2W1 orthologs (variant responses) plotted against the human OR2W1 response using the data from (A). X-axis and y-axis are response in luciferase assay at 100 µM (n = 3, ± S.E.). The black line represents the unit-slope line. Odor abbreviations in Table S3.

For another experiment, the target named is T2, h56A5 (Homo sapiens, UniProt P0C7T3).
T2 construct: gene OR56A5
The experiment can be described thus: cell-based. Further details: species or system Hana3A; cAMP-mediated luciferase reporter dose-response of odorant receptor orthologs and paralogs.
From the text: as §1

Another experiment has as its target T3, h56A1 (Homo sapiens, UniProt Q8NGH5).
T3 construct: gene OR56A1
Put plainly: cell-based. On the set-up: species or system Hana3A; cAMP-mediated luciferase reporter dose-response of odorant receptor orthologs and paralogs.
From the text: as §1

A further experiment concerns the target T4, h10G3 (Homo sapiens, UniProt Q8NGC4).
T4 construct: gene OR10G3
The experiment can be described thus: cell-based. Further details: species or system Hana3A; cAMP-mediated luciferase reporter dose-response of odorant receptor orthologs and paralogs.
From the text: as §1

Experiment [1] deals with T5, OR2J2 (human) (Homo sapiens, UniProt O76002).
T5 construct: full-length ORF from genomic DNA, N-terminal Rho-tag, Hana3A cells with human RTP1S
T5 sequence (O76002 1-312): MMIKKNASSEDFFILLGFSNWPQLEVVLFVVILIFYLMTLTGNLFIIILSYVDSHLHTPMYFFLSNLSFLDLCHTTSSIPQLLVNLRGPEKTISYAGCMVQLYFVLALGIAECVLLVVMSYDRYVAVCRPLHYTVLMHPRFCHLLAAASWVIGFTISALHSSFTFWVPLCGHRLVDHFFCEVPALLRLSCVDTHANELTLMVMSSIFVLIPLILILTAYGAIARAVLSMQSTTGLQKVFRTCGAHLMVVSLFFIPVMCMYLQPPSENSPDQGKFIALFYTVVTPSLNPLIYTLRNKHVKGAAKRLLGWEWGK
The experiment can be described thus: cAMP-mediated CRE-luciferase reporter dose-response, Hana3A cells. The experiment is classed as cell-based. Conditions: agonist; human RTP1S and M3 receptor co-expressed; odor 10 nM to 10 mM.

In experiment [2] the target is T5, OR2J2 (human). The experiment can be described thus: cell-based. On the set-up: species or system Hana3A; cAMP-mediated luciferase reporter dose-response of odorant receptor orthologs and paralogs.
From the text: as §1

The next experiment deals with T6, h2J1 (Homo sapiens, UniProt Q9GZK6).
T6 construct: gene OR2J1
Put plainly: cell-based. Further details: species or system Hana3A; cAMP-mediated luciferase reporter dose-response of odorant receptor orthologs and paralogs.
From the text: as §1

Another experiment has as its target T7, h2J3 (Homo sapiens, UniProt O76001).
T7 construct: gene OR2J3
Put plainly: cell-based. On the set-up: species or system Hana3A; cAMP-mediated luciferase reporter dose-response of odorant receptor orthologs and paralogs.
From the text: as §1

Experiment [3] deals with T8, chimp OR8K3 (Pan troglodytes, UniProt A0A2J8LC19).
T8 construct: gene LOC466557; full-length ORF from genomic DNA, N-terminal Rho-tag, Hana3A cells with human RTP1S
Put plainly: cAMP-mediated CRE-luciferase reporter dose-response, Hana3A cells. The experiment is classed as cell-based. Particulars: agonist; human RTP1S and M3 receptor co-expressed; odor 10 nM to 10 mM. In general terms: In a reporter assay the amount or activity of a reporter protein is the signal.

In experiment [4] the target is T8, chimp OR8K3. The experiment can be described thus: cell-based. Further details: species or system Hana3A; cAMP-mediated luciferase reporter dose-response of odorant receptor orthologs and paralogs.
From the text: as §1

In a further experiment the target is T9, h2A25 (Homo sapiens, UniProt A4D2G3).
T9 construct: gene OR2A25
Put plainly: cell-based. On the set-up: species or system Hana3A; cAMP-mediated luciferase reporter dose-response of odorant receptor orthologs and paralogs.
From the text: as §1

For experiment [5], the target named is T10, chimp OR8D1 (Pan troglodytes, UniProt A0A2J8N1S1).
T10 construct: gene LOC466828; full-length ORF from genomic DNA, N-terminal Rho-tag, Hana3A cells with human RTP1S
The experiment can be described thus: cAMP-mediated CRE-luciferase reporter dose-response, Hana3A cells. The experiment is classed as cell-based. Particulars: agonist; human RTP1S and M3 receptor co-expressed; odor 10 nM to 10 mM.

Experiment [6] deals with T10, chimp OR8D1. Put plainly: cell-based. Further details: species or system Hana3A; cAMP-mediated luciferase reporter dose-response of odorant receptor orthologs and paralogs.
From the text: as §1

The target in the next experiment is human OR51L1 (Homo sapiens, UniProt Q8NGJ5). Put plainly: cell-based. On the set-up: species or system Hana3A; cAMP-mediated luciferase reporter assay of odorant receptor activation, dose-response, ortholog pairs. Particulars: ortholog set. The method, then:
(§2) Figure 2 Response of OR orthologs to 42 chemically diverse odors. (A) Tuning curves of human, chimp and macaque OR2W1 orthologs tested against 42 odors using a cAMP-mediated luciferase assay. Odorants are ordered along the x-axis according to the response elicited from the human OR2W1, with the best ligands closer to the center. Y-axis represents the luciferase response to an odor at 100 µM (n = 3, ± S.E.). Negative values on the y-axis indicate the odor elicited an inhibitory response on OR signaling. See Figure S6 for additional tuning curves. (B) Response of chimp and macaque OR2W1 orthologs (variant responses) plotted against the human OR2W1 response using the data from (A). X-axis and y-axis are response in luciferase assay at 100 µM (n = 3, ± S.E.). The black line represents the unit-slope line. Odor abbreviations in Table S3. We next wanted to examine the functional changes in sensitivity of orthologs to individual ligands by testing each ortholog across a range of concentrations. We selected a single odor for a given OR to construct a representative dose-response curve, fit the data to a sigmoid curve, and then compared the response of the human allele against the primate orthologs and the mouse allele with the rat ortholog using an extra sum of squares test. […]

In the next experiment the target is T11, h51E1 (Homo sapiens, UniProt Q8TCB6).
T11 construct: gene OR51E1
The experiment can be described thus: cell-based. Further details: species or system Hana3A; cAMP-mediated luciferase reporter dose-response of odorant receptor orthologs and paralogs.
From the text: as §1

The next experiment concerns the target T12, MOR267-13 (Mus musculus, UniProt Q62007).
T12 construct: gene Or10j5
The experiment can be described thus: cell-based. On the set-up: species or system Hana3A; cAMP-mediated luciferase reporter assay of odorant receptor activation, dose-response, orthologs and paralogs. Particulars: ortholog and paralog set. As to the method: Figure 2 Response of OR orthologs to 42 chemically diverse odors. (A) Tuning curves of human, chimp and macaque OR2W1 orthologs tested against 42 odors using a cAMP-mediated luciferase assay. Odorants are ordered along the x-axis according to the response elicited from the human OR2W1, with the best ligands closer to the center. Y-axis represents the luciferase response to an odor at 100 µM (n = 3, ± S.E.). Negative values on the y-axis indicate the odor elicited an inhibitory response on OR signaling. See Figure S6 for additional tuning curves. (B) Response of chimp and macaque OR2W1 orthologs (variant responses) plotted against the human OR2W1 response using the data from (A). X-axis and y-axis are response in luciferase assay at 100 µM (n = 3, ± S.E.). The black line represents the unit-slope line. Odor abbreviations in Table S3. Figure 6 Dose-response curves of OR orthologs and paralogs to a given ligand. (A) OR5K1 orthologs and 5 K subfamily to eugenol methyl ether. (B) OR8D1 orthologs and 8D subfamily members to 4,5-dimethyl-3-hydroxy-2,5-dihydrofuran-2-one. […] X-axis is the concentration of a given odor in Log Molar. Y-axis is normalized response (n = 3, ± S.E.M.). Human (h), chimpanzee (c) and rhesus macaque (m), mouse receptors (m+number); para indicates a receptor that is a paralog to the human reference OR. Vector control is Rho-pCI. […]

Another experiment deals with T13, h10J5 (Homo sapiens, UniProt Q8NHC4).
T13 construct: gene OR10J5
The experiment can be described thus: cell-based. On the set-up: species or system Hana3A; cAMP-mediated luciferase reporter dose-response of odorant receptor orthologs and paralogs.
From the text: as §1

In the next experiment the target is T14, h10J1 (Homo sapiens, UniProt P30954).
T14 construct: gene OR10J1
Put plainly: cell-based. Further details: species or system Hana3A; cAMP-mediated luciferase reporter dose-response of odorant receptor orthologs and paralogs.
From the text: as §1

The next experiment deals with T15, h10G4 (Homo sapiens, UniProt Q8NGN3).
T15 construct: gene OR10G4
The experiment can be described thus: cell-based. On the set-up: species or system Hana3A; cAMP-mediated luciferase reporter dose-response of odorant receptor orthologs and paralogs.
From the text: as §1

In the next experiment the target is T16, h10G9 (Homo sapiens, UniProt Q8NGN4).
T16 construct: gene OR10G9
Put plainly: cell-based. Further details: species or system Hana3A; cAMP-mediated luciferase reporter dose-response of odorant receptor orthologs and paralogs.
From the text: as §1

A further experiment has as its target T17, chimp OR5K1 (Pan troglodytes, UniProt A0A2J8MY22).
T17 construct: gene LOC470870; full-length ORF from genomic DNA, N-terminal Rho-tag, Hana3A cells with human RTP1S
The experiment can be described thus: cAMP-mediated CRE-luciferase reporter dose-response, Hana3A cells. The experiment is classed as cell-based. Particulars: agonist; human RTP1S and M3 receptor co-expressed; odor 10 nM to 10 mM.

A further experiment has as its target T18, mouse MOR256-17 (Mus musculus, UniProt P23275).
T18 construct: gene Or2c1
Put plainly: cell-based. On the set-up: species or system Hana3A; cAMP-mediated luciferase reporter assay of odorant receptor activation, dose-response, ortholog pairs. Particulars: ortholog set. The method, then: as §2

In another experiment the target is T19, h5P3 (Homo sapiens, UniProt Q8WZ94).
T19 construct: gene OR5P3
The experiment can be described thus: cell-based. On the set-up: species or system Hana3A; cAMP-mediated luciferase reporter dose-response of odorant receptor orthologs and paralogs.
From the text: as §1

The next experiment deals with T20, h2B11 (Homo sapiens, UniProt Q5JQS5).
T20 construct: gene OR2B11
The experiment can be described thus: cell-based. On the set-up: species or system Hana3A; cAMP-mediated luciferase reporter dose-response of odorant receptor orthologs and paralogs.
From the text: as §1

What is called EC50 is the midpoint of the concentration-response curve. Low values mean an effect from little substance, high ones a need for much substance.

Each structure is given as a SMILES string.

T10 sequence (A0A2J8N1S1 1-308): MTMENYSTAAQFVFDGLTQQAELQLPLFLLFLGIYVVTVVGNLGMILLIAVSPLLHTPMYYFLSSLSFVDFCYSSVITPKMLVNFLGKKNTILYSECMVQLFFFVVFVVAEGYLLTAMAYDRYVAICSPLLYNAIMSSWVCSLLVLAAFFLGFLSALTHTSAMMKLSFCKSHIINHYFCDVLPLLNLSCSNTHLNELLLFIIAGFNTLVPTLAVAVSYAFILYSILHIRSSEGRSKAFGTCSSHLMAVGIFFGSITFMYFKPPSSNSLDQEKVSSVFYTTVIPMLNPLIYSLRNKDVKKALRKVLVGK
T7 sequence (O76001 whole entry): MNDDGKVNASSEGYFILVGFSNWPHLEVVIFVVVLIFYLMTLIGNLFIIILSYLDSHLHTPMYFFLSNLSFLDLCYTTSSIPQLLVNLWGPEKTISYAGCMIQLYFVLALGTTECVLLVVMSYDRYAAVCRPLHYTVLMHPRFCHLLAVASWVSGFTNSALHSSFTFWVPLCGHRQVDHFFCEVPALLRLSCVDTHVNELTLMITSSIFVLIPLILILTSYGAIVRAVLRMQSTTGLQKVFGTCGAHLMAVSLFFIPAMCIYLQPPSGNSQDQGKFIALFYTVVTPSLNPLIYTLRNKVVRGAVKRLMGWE
T8 sequence (A0A2J8LC19 1-312): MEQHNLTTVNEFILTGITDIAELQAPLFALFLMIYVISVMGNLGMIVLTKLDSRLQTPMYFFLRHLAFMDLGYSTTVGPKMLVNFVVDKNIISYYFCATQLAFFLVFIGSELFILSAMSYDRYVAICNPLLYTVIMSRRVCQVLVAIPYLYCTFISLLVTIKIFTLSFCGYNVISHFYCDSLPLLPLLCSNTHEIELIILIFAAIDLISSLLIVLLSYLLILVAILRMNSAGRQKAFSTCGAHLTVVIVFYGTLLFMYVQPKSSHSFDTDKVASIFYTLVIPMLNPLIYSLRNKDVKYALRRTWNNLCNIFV
T6 sequence (Q9GZK6 whole entry): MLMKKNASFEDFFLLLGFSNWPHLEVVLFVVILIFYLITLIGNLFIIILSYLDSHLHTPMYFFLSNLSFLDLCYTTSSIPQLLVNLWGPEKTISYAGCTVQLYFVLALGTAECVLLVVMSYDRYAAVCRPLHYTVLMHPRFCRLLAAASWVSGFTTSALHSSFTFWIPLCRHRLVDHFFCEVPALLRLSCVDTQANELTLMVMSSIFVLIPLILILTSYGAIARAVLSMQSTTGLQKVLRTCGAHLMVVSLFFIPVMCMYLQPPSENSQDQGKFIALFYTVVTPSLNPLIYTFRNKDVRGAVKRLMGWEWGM
T4 sequence (Q8NGC4 whole entry): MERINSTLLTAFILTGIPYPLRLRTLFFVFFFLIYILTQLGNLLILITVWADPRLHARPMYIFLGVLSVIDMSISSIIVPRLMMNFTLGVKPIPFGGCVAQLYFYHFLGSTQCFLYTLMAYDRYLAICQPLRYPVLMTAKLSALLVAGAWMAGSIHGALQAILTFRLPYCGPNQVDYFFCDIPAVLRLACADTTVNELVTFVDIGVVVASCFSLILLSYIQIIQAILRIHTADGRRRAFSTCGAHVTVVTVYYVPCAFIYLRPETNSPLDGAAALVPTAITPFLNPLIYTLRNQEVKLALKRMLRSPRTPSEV
human OR51L1, sequence (Q8NGJ5 whole entry): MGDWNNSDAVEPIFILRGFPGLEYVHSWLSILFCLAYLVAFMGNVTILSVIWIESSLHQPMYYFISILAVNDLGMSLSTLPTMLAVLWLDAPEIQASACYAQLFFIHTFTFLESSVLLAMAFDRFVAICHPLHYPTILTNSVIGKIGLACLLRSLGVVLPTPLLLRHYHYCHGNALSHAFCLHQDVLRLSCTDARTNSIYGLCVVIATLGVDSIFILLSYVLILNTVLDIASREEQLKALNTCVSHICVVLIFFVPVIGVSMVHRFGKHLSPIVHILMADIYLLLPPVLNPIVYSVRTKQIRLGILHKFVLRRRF
T20 sequence (Q5JQS5 whole entry): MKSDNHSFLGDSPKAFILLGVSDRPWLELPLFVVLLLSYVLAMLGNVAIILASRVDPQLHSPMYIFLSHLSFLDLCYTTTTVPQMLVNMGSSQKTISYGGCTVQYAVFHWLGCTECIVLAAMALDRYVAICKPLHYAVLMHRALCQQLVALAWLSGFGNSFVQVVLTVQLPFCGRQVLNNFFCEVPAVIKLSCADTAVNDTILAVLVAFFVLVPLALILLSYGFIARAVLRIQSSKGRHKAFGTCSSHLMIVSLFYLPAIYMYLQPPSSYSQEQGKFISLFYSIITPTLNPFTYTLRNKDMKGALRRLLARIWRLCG
T19 sequence (Q8WZ94 whole entry): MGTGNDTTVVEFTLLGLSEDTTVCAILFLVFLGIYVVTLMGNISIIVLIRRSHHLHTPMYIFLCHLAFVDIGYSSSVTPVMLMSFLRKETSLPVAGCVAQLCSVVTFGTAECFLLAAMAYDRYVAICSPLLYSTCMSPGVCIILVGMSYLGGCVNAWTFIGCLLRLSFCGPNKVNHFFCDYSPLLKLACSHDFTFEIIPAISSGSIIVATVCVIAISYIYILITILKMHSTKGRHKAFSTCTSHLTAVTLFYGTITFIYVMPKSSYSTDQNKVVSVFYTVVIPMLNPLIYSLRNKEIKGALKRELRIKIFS
T18 sequence (P23275 whole entry): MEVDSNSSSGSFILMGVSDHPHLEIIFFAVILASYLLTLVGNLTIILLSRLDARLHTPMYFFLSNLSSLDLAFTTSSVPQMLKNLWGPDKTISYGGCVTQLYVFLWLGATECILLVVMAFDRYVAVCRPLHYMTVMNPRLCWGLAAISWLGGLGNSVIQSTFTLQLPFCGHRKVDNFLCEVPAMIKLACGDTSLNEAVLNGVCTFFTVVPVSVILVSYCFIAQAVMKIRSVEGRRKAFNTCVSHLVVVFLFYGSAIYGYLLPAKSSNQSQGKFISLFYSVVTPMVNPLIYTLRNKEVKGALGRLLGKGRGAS
T3 sequence (Q8NGH5 whole entry): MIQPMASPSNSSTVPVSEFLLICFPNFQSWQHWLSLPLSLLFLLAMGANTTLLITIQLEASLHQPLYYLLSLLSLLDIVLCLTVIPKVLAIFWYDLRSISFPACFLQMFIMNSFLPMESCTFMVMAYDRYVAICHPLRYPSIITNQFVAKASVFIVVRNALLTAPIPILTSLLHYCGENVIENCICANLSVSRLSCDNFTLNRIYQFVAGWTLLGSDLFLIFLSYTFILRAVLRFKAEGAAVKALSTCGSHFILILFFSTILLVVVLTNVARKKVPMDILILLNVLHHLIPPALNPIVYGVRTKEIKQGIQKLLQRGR
T17 sequence (A0A2J8MY22 1-308): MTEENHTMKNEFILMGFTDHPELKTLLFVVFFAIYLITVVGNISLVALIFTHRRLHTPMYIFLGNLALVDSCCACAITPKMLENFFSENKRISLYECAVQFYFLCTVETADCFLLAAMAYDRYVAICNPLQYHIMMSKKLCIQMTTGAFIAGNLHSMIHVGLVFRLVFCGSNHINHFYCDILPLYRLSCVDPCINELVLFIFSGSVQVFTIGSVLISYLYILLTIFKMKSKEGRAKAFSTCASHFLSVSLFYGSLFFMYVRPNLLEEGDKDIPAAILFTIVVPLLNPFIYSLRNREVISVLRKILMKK
T12 sequence (Q62007 whole entry): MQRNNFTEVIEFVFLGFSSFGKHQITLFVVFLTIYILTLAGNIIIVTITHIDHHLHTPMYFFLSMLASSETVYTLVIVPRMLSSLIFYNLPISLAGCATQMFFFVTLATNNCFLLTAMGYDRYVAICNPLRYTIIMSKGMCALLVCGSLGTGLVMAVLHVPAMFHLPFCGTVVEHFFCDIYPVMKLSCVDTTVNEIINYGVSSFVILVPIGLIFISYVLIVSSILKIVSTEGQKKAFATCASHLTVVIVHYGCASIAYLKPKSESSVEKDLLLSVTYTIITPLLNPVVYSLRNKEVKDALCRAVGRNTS
T1 sequence (Q8NGH8 whole entry): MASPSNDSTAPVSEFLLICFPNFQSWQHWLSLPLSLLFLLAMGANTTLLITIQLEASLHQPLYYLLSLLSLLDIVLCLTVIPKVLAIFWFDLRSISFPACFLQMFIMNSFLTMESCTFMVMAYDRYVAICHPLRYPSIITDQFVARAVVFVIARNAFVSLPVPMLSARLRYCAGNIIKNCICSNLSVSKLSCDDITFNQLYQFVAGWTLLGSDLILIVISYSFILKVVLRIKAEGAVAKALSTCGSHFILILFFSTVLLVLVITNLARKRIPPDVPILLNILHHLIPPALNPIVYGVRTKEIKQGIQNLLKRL
T13 sequence (Q8NHC4 whole entry): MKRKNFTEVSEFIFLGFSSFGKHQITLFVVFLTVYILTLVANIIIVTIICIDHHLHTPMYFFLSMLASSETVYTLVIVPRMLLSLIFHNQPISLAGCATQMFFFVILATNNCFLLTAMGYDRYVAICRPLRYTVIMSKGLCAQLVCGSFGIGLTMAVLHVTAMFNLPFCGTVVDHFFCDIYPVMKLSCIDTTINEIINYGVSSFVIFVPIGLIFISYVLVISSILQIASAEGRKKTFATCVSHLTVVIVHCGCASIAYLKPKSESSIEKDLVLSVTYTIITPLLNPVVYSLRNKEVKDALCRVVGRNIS
T11 sequence (Q8TCB6 whole entry): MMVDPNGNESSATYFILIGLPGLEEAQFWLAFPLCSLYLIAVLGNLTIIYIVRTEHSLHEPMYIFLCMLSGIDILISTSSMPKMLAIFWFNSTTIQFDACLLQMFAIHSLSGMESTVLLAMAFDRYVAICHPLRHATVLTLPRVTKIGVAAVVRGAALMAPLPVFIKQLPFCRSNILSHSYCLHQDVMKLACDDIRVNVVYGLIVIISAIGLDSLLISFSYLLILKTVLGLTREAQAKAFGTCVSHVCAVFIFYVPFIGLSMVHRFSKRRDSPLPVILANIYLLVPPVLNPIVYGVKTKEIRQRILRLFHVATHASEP

With `CCCCCCCCCC=O` [decyl aldehyde], the EC50 is 191 µM on h56A4, 162 µM at h56A5 and 575 µM at h56A1.

On to `C=CCc1ccc(O)c(OC)c1` [eugenol], for which a half-maximal effect at h10G3 (EC50) was put at 132 µM.

As to `CCCCCCCCO` [1-octanol], the LogEC50 result on OR2J2 (human) [1] was “OR2J2 orthologs and 2J subfamily members to 1-octanol”. Further, the values for the EC50 on OR2J2 (human) [2], on h2J1 and on h2J3 were 7.41 µM, 112 µM and 1.86 µM, respectively.

Take `CC(C)[C@H]1CC[C@H](C)C[C@@H]1O` [(+)-menthol]: on chimp OR8K3 [3], the LogEC50 result is “human and chimp OR8K3 orthologs are indistinguishable in their response to (+)-menthol”. At chimp OR8K3 [4], the response was half-maximal at 9.12 µM (EC50).

As for `CC(=O)OC/C=C(\C)CCC=C(C)C` [geranyl acetate], the EC50 was 42.7 µM at OR2J2 (human) [2], 9.55 µM at h2A25, 479 µM on h2J1 and 162 µM at h2J3.

In the case of `CC1=C(O)C(=O)OC1C` (stereo not shown) [4,5-dimethyl-3-hydroxy-2,5-dihydrofuran-2-one], the LogEC50 entry at chimp OR8D1 [5] was “Human OR8D1 is hyperfunctional to chimp and macaque OR8D1 orthologs”. This compound showed an EC50 at chimp OR8D1 [6] of 18.6 µM.

`C=CCOC(=O)Cc1ccccc1` [allyl phenyl acetate] showed an EC50 on human OR51L1 of 9.12 µM.

Turning to `CCCC(=O)O` [butyric acid], it took 57.5 µM to reach a half-maximal effect at h51E1 (EC50).

For `CC(C)(O)CCCC1=CCC(C=O)CC1` (stereo not shown) [lyral], the EC50 is 20.9 µM at MOR267-13, 47.9 µM on h10J5 and 724 µM at h10J1.

Turning to `CCOc1cc(C=O)ccc1O` [ethyl vanillin], the values for the EC50 on h10G4, at h10G3 and at h10G9 were 40.7 µM, 41.7 µM and 537 µM, respectively.

Take `C=CCc1ccc(OC)c(OC)c1` [eugenol methyl ether]: on chimp OR5K1, the LogEC50 result is “human OR5K1 is hyperfunctional to both chimp and macaque OR5K1 orthologs”.

In the case of `O=c1ccc2ccccc2o1` [coumarin], the figures for the EC50 at mouse MOR256-17, at h5P3 and on h2B11 were 44.7 µM, 2.95 µM and 72.4 µM, respectively.

Source of the values: PMC3395614, “Functional Evolution of Mammalian Odorant Receptors” (PLoS Genetics, 2012).
